Experimental data from patent publication US20030055046A1, “Novel pyrido cyclohexenyl phenyl carboxamides tocolytic oxytocin receptor antagonists” (Wyeth, priority 2001, published 2003).
Counter-ions that a name gives are not always drawn.

Biological target: T1, human vasopressin V2 receptor subtype (Homo sapiens, UniProt P30518)
T1 construct: host or cells: CHO cells, stably transfected (pZeoSV vector)
Assay: Vasopressin binding in CHO cell membranes expressing human vasopressin V2 subtype receptors
Conditions: [3H]arginine vasopressin; for IC50: value in parentheses
Text: Vasopressin Binding in Chinese Hamster Ovary Cell Membranes Expressing Human Vasopressin V2 Subtype Receptors
Chinese Hamster Ovary (CHO) cells stably transfected with the human V2 subtype receptors were obtained from M. Thibonnier, Case Western Reserve University School of Medicine, Cleveland, Ohio.
A. Passaging and Amplification of Cells:
CHO cells transfected with the human vasopressin V2 subtype receptors obtained from M. Thibonnier (pZeoSV vector) are allowed to grow to confluency (approx. >90%) in T-150 flasks under sterile conditions, in a cell culture medium consisting of F-12 Nutrient Mixture (HAM) with L-glutamine (Gibco Cat.# 11765-054) containing 15 mM HEPES (Gibco Cat.# 15630-080), 1% antibiotic/antimycotic (add 5 mL 100×, Gibco Cat.# 15240-062 per 500 mL F-12), 250 μg/mL Zeocin (add 1.25 mL of 100 mg/mL Invitrogen R-250-01 per 500 mL F-12) and 10% Fetal Bovine Serum (Qualified, heat inactivated, Gibco Cat.# 16140-063). The medium is removed by aspiration and the cells washed with 10 mL of Hank's Balanced Salt solution (Gibco Cat.# 14175-095). The salt solution is removed by aspiration and the cells trypsinized with 5 mL of trypsin-EDTA (0.05% trypsin, 0.53 mM EDTA-4Na, Gibco Cat.# 25300-070) for 1 min. The trypsin is removed by aspiration and the cells dislodged by tapping. Cell Culture medium (e.g. 30 mL for 1:30 split) is immediately added and mixed well to inactivate trypsin. 1 mL of detached cells is added to new culture flasks containing fresh Cell Culture medium (e.g. into 25 mL per T-150 flask), and mixed gently. The cells are incubated at 37° C. in 5% CO2. The medium is changed at 3 to 4 day interval (or as appropriate). The cells grow to confluency (approx. >75%-95%) within 7-8 days. All steps are done under sterile conditions.
The cells are washed twice gently with Hank's Balanced Salt solution (e.g. use 10 mL per T-150 flask). The excess solution is removed and the cells bathed for 15-30 min. in an enzyme-free Cell Dissociation Buffer (e.g. use 8 mL Hank's Based, Gibco Cat.# 13150-016 per T-150 flask) until cells are loosened. The contents are transferred to centrifuge tubes (50 mL) kept in an ice bath. All subsequent steps are done at 4° C. The tubes are centrifuged at 300×g for 15 min (1380 rpm on SORVAL, Model RT6000D, using the rotor for 50 mL tubes). The supernatant is discarded and the cells suspended in homogeneizing buffer(10 mM Tris-HCl containing 0.25 M sucrose and 1 mM EDTA, pH 7.4) ensuring that the volume of the buffer is about ten times the volume of the cell pellet. The cells are pooled into a centrifuge tube (50 mL) and homogenized with Polytron at setting 6 for 10 sec. The homogenate is transferred into a Potter-Elvjehm homogeneizer and homogenized with 3 strokes. The homogenate is centrifuged at 1500×g for 60 min at 4° C. (3100 rpm using SORVAL, model RT6000D, using the rotor for 50 mL tubes). The pellet is discarded. The supernatant is centrifuged at 100,000×g for 60 min. at 4° C. (Beckman L8-80M ultracentrifuge; spin at 37,500 rpm with rotor type 70 Ti for 50 mL tubes; 38,000 rpm with type 80Ti for 15 mL tubes; or 35,800 rpm with rotor type 45Ti). The supernatant is discarded and the pellet suspended in 3 to 4 mL of Tris buffer (50 mM TRIS-HCl, pH 7.4). The protein content is estimated by the Bradford or Lowry method. The volume of the membrane suspension is adjusted with the membrane buffer (50 mM Tris-HCl containing 0.1% BSA and 0.1 mM PMSF) to give 3.0 mg/mL (or as appropriate) of protein. The membranes are aliquoted and stored at −70° C.
C. Radioligand Binding Assay:
In wells of a 96-well format microtiter plate, is added 90, 110 or 130 μL (to make up a final volume of 200 μL) of assay buffer containing 50 mM of Tris-HCl (pH 7.4), […], 1 mg % aprotinin, 1 mg % leupeptin, 2 mg % 1,10-phenanthroline, 10 mg % trypsin inhibitor, and 0.1 mM PMSF. The inhibitors are added on the day of the experiment. […]

T1 sequence (P30518 whole entry): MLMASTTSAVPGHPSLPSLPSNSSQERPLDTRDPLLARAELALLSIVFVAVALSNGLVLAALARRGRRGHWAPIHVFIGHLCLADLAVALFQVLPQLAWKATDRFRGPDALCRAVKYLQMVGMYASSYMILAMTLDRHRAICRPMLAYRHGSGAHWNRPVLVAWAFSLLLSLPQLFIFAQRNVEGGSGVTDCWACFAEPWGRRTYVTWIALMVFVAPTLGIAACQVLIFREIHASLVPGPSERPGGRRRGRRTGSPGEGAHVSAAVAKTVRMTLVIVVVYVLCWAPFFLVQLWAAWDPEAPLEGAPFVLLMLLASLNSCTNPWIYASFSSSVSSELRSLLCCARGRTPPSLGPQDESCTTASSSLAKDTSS

V2 % inhibition @ 100 nM [%]	IC50 [µM]	Structure (SMILES)
15	–	Cc1cc(C(=O)N2Cc3ccc(C(=O)NCc4ccncc4)n3Cc3ccccc32)ccc1C1=CCCCC1 [Example 10, 10-[4-(1-Cyclohex-1-en-1-yl)-3-methylbenzoyl]-N-(4-pyridinylmethyl)-10,11-dihydro-5H-pyrrolo[2,1-c][1,4]benzodiazepine-3-carboxamide]
6	–	Cc1cc(C(=O)N2Cc3ccc(C(=O)NCCc4ccccn4)n3Cc3ccccc32)ccc1C1=CCCCC1 [Example 7, 10-[4-(1-Cyclohex-1-en-1-yl)-3-methylbenzoyl]-N-[2-(2-pyridinyl)ethyl]-10,11-pyrrolo[2,1-c][1,4]benzodiazepine-3-carboxamide]
3	–	Cc1cc(C(=O)N2Cc3ccc(C(=O)NCc4cccnc4)n3Cc3ccccc32)ccc1C1=CCCCC1 [Example 6, 10-[4-(1-Cyclohex-1-en-1-yl)-3-methylbenzoyl]-N-(3-pyridinylmethyl)-10,11-dihydro-5H-pyrrolo[2,1-c][1 ,4]benzodiazepine-3-carboxamide]
–	1.19	COc1cc(C2=CCCCC2)c(Cl)cc1C(=O)N1Cc2ccc(C(=O)N(C)Cc3cccnc3)n2Cc2ccccc21 [Example 1, 10-(5-Chloro-4-cyclohex-1-en-1-yl-2-me3thoxybenzoyl)-N-methyl-N-(pyridin-3-ylmethyl)-10,11-dihydro-5H-pyrrolo [2,1-c][1,4]benzodiazepine-3-carboxamide]
16	–	Cc1cc(C(=O)N2Cc3ccc(C(=O)N(C)CCc4ccccn4)n3Cc3ccccc32)ccc1C1=CCCCC1 [Example 8, 10-[4-(1-Cyclohex-1-en-1-yl)-3-methylbenzoyl]-N-methyl-N-[2-(2-pyridinyl)ethyl]-10,11-dihydro-5H-pyrrolo[2,1-c][1 ,4]benzodiazepine-3-carboxamide]
21	–	Cc1cc(C(=O)N2Cc3ccc(C(=O)N4CCN(c5ccccn5)CC4)n3Cc3ccccc32)ccc1C1=CCCCC1 [Example 9, {10-[4-(1-Cyclohex-1-en-1-yl)-3-methylbenzoyl]-10,11-dihydro-5H-pyrrolo[2,1-c][1,4]benzodiazepin-3-yl}[4-(2-pyridinyl)-1-piperazinyl]methanone]
–	1.42	COc1cc(C2=CCCCC2)c(Cl)cc1C(=O)N1Cc2ccc(C(=O)N(C)Cc3cccnc3)n2Cc2ccccc21 [Example 2, 10-(5-Chloro-4-cyclohex-1-en-1-yl-2-methoxybenzoyl)-N-methyl-N-(pyridin-3-ylmethyl)-10,11-dihydro-5H-pyrrolo[2,1-c][1,4]benzodiazepine-3-carboxamide L-(+)-tartaric acid salt hemihydrate]
17	–	Cc1cc(C(=O)N2Cc3ccc(C(=O)N(C)Cc4cccnc4)n3Cc3ccccc32)ccc1C1=CCCCC1 [Example 11, 10-[4-(1-Cyclohex-1-en-1-yl)-3-methylbenzoyl]-N-methyl-N-(3-pyridinylmethyl)-10,11-dihydro-5H-pyrrolo[2,1-c][1,4]benzodiazepine-3-carboxamide]
12	–	Cc1cc(C(=O)N2Cc3ccc(C(=O)NCc4ccccn4)n3Cc3ccccc32)ccc1C1=CCCCC1 [Example 5, 10-[4-(1-Cyclohex-1-en-1-yl)-3-methylbenzoyl]-N-(2-pyridinylmethyl)-10,11-dihydro-5H-pyrrolo[2,1-c][1,4]benzodiazepine-3-carboxamide]
12	–	Cc1cc(C(=O)N2Cc3ccc(C(=O)N(C)CCc4ccncc4)n3Cc3ccccc32)ccc1C1=CCCCC1 [Example 13, 10-[4-(1-Cyclohex-1-en-1-yl)-3-methylbenzoyl]-N-methyl-N-[2-(4-pyridinyl)ethyl]-10,11-dihydro-5H-pyrrolo[2,1-c][1,4]benzodiazepine-3-carboxamide]
21	–	Cc1cc(C(=O)N2Cc3ccc(C(=O)N4CCN(c5ccncc5)CC4)n3Cc3ccccc32)ccc1C1=CCCCC1 [Example 12, {10-[4-(1-Cyclohex-1-en-1-yl)-3-methylbenzoyl]-10,11-dihydro-5H-pyrrolo[2,1--c][1,4]benzodiazepin-3-yl}[4-(4-pyridinyl)-1-piperazinyl]methanone]

Structure (SMILES)	V2 % inhibition @ 100 nM [%]	IC50 [µM]
CC1=C(c2ccc(C(=O)N3Cc4ccc(C(=O)N(C)Cc5cccnc5)n4Cc4ccccc43)cc2C)CCC[C@H]1O [Example 3, 10-[4-((3R)-3-Hydroxy-2-methyl-cyclohex-1-en-1-yl)-3-methyl-benzoyl]-10,11-dihydro-5H-pyrrolo[2,1-c][1,4]benzodiazepine-3-carboxylic acid methyl-pyridin-3-yl methyl-amide]	7	–
CC1=C(c2ccc(C(=O)N3Cc4ccc(C(=O)N(C)Cc5cccnc5)n4Cc4ccccc43)cc2C)CCC[C@H]1O.O=C(O)C(O)C(O)C(=O)O [Example 4, 10-[4-((3R)-3-Hydroxy-2-methyl-cyclohex-1-en-1-yl)-3-methyl-benzoyl]-10,11-dihydro-5H-pyrrolo[2,1-c][1,4]benzodiazepine-3-carboxylic acid methyl-pyridin-3-yl methyl-amide L-(+)-tartaric acid salt]	20	–
